In the NIST ThermoML archive (doi:10.1016/j.fluid.2018.09.026):
Where “and” joins values, the source holds several entries; their conditions need not be identical. Equal values may be shown once. ± gives the expanded uncertainty stated by the source.

Details: Liquid; for mass density: Vibrating tube method; for viscosity: Vibrating wire viscometry

OCCOCCO [diethylene glycol]
mass density (323.15 K, 19770 kPa): 1103.6 ± 4.4 kg/m3 | mass density (323.15 K, 24680 kPa): 1105.8 ± 4.4 kg/m3 | mass density (323.15 K, 29600 kPa): 1108 ± 4.5 kg/m3 | mass density (323.15 K, 34530 kPa): 1110.1 ± 4.5 kg/m3 | mass density (323.15 K, 39360 kPa): 1112.2 ± 4.5 kg/m3 | mass density (323.15 K, 44290 kPa): 1114.3 ± 4.5 kg/m3 | mass density (323.15 K, 49260 kPa): 1116.3 ± 4.5 kg/m3 | mass density (323.15 K, 54100 kPa): 1118.2 ± 4.5 kg/m3 | mass density (323.15 K, 59060 kPa): 1120.2 ± 4.5 kg/m3 | mass density (323.15 K, 63880 kPa): 1122 ± 4.5 kg/m3 | mass density (323.15 K, 68770 kPa): 1123.8 ± 4.5 kg/m3 | mass density (333.15 K, 100 kPa): 1087 ± 4.4 kg/m3 | mass density (333.15 K, 660 kPa): 1087.3 ± 4.4 kg/m3 | mass density (333.15 K, 1120 kPa): 1087.5 ± 4.4 kg/m3 | mass density (333.15 K, 1630 kPa): 1087.8 ± 4.4 kg/m3 | mass density (333.15 K, 2100 kPa): 1088 ± 4.4 kg/m3 | mass density (333.15 K, 3070 kPa): 1088.5 ± 4.4 kg/m3 | mass density (333.15 K, 5060 kPa): 1089.5 ± 4.4 kg/m3 | mass density (333.15 K, 7050 kPa): 1090.5 ± 4.4 kg/m3 | mass density (333.15 K, 9930 kPa): 1091.9 ± 4.4 kg/m3 | mass density (333.15 K, 14780 kPa): 1094.3 ± 4.4 kg/m3 | mass density (333.15 K, 19770 kPa): 1096.7 ± 4.4 kg/m3 | mass density (333.15 K, 24660 kPa): 1099 ± 4.4 kg/m3 | mass density (333.15 K, 29540 kPa): 1101.2 ± 4.4 kg/m3 | mass density (333.15 K, 34500 kPa): 1103.4 ± 4.4 kg/m3 | mass density (333.15 K, 39330 kPa): 1105.5 ± 4.4 kg/m3 | mass density (333.15 K, 44230 kPa): 1107.6 ± 4.5 kg/m3 | mass density (333.15 K, 49130 kPa): 1109.7 ± 4.5 kg/m3 | mass density (333.15 K, 54060 kPa): 1111.7 ± 4.5 kg/m3 | mass density (333.15 K, 59020 kPa): 1113.7 ± 4.5 kg/m3 | mass density (333.15 K, 63840 kPa): 1115.7 ± 4.5 kg/m3 | mass density (333.15 K, 68830 kPa): 1117.5 ± 4.5 kg/m3 | viscosity (333.28 K, 210 kPa): 7.305 ± 0.32 mPa·s [middle of 6 runs] | viscosity (333.28 K, 1080 kPa): 7.347 ± 0.3 mPa·s and 7.376 ± 0.3 mPa·s and 7.374 ± 0.3 mPa·s | viscosity (333.28 K, 2290 kPa): 7.397 ± 0.3 mPa·s [middle of 6 runs] | viscosity (333.28 K, 5100 kPa): 7.491 ± 0.3 mPa·s | viscosity (333.28 K, 5110 kPa): 7.506 ± 0.31 mPa·s and 7.492 ± 0.3 mPa·s | viscosity (333.28 K, 5120 kPa): 7.53 ± 0.31 mPa·s and 7.547 ± 0.31 mPa·s | viscosity (333.28 K, 10340 kPa): 7.758 ± 0.32 mPa·s and 7.739 ± 0.32 mPa·s | viscosity (333.28 K, 10360 kPa): 7.749 ± 0.32 mPa·s and 7.734 ± 0.32 mPa·s | viscosity (333.28 K, 19960 kPa): 8.178 ± 0.33 mPa·s [middle of 5 runs] | viscosity (333.28 K, 30150 kPa): 8.721 ± 0.35 mPa·s and 8.673 ± 0.35 mPa·s | viscosity (333.28 K, 30160 kPa): 8.678 ± 0.35 mPa·s and 8.671 ± 0.35 mPa·s | viscosity (333.28 K, 40000 kPa): 9.197 ± 0.38 mPa·s | viscosity (333.28 K, 40010 kPa): 9.192 ± 0.38 mPa·s and 9.199 ± 0.38 mPa·s and 9.178 ± 0.37 mPa·s | viscosity (333.28 K, 50250 kPa): 9.728 ± 0.4 mPa·s and 9.806 ± 0.4 mPa·s | viscosity (333.28 K, 50260 kPa): 9.736 ± 0.4 mPa·s | viscosity (333.28 K, 68880 kPa): 10.71 ± 0.51 mPa·s | viscosity (333.28 K, 69100 kPa): 10.77 ± 0.51 mPa·s | viscosity (333.28 K, 69180 kPa): 10.8 ± 0.51 mPa·s | viscosity (342.75 K, 250 kPa): 5.567 ± 0.23 mPa·s and 5.585 ± 0.23 mPa·s and 5.609 ± 0.23 mPa·s | viscosity (342.75 K, 260 kPa): 5.588 ± 0.23 mPa·s and 5.573 ± 0.23 mPa·s | viscosity (342.75 K, 1040 kPa): 5.634 ± 0.23 mPa·s [middle of 5 runs] | viscosity (342.75 K, 2130 kPa): 5.655 ± 0.23 mPa·s [middle of 5 runs] | viscosity (342.75 K, 5010 kPa): 5.77 ± 0.23 mPa·s | viscosity (342.75 K, 5020 kPa): 5.764 ± 0.23 mPa·s and 5.765 ± 0.23 mPa·s | viscosity (342.75 K, 9990 kPa): 5.9 ± 0.24 mPa·s and 5.894 ± 0.24 mPa·s and 5.912 ± 0.24 mPa·s | viscosity (342.75 K, 10000 kPa): 5.925 ± 0.24 mPa·s | viscosity (342.75 K, 20270 kPa): 6.257 ± 0.25 mPa·s and 6.245 ± 0.25 mPa·s | viscosity (342.75 K, 20280 kPa): 6.256 ± 0.25 mPa·s and 6.268 ± 0.25 mPa·s | viscosity (342.75 K, 30150 kPa): 6.641 ± 0.27 mPa·s [middle of 6 runs] | viscosity (342.75 K, 39690 kPa): 6.989 ± 0.28 mPa·s | viscosity (342.75 K, 39700 kPa): 6.991 ± 0.28 mPa·s | viscosity (342.75 K, 39710 kPa): 6.946 ± 0.28 mPa·s and 6.939 ± 0.28 mPa·s and 6.957 ± 0.28 mPa·s | viscosity (342.75 K, 50090 kPa): 7.319 ± 0.3 mPa·s [middle of 6 runs] | viscosity (342.75 K, 70440 kPa): 8.133 ± 0.33 mPa·s | viscosity (342.75 K, 70450 kPa): 8.148 ± 0.33 mPa·s | viscosity (342.75 K, 70460 kPa): 8.145 ± 0.33 mPa·s | viscosity (342.75 K, 70480 kPa): 8.152 ± 0.33 mPa·s | viscosity (342.75 K, 70500 kPa): 8.131 ± 0.33 mPa·s | viscosity (342.75 K, 70510 kPa): 8.177 ± 0.33 mPa·s | mass density (343.15 K, 100 kPa): 1079.7 ± 4.3 kg/m3 | mass density (343.15 K, 670 kPa): 1080 ± 4.3 kg/m3 | mass density (343.15 K, 1100 kPa): 1080.2 ± 4.3 kg/m3 | mass density (343.15 K, 1520 kPa): 1080.4 ± 4.3 kg/m3 | mass density (343.15 K, 2120 kPa): 1080.7 ± 4.3 kg/m3
